Experimental data taken from ChEMBL document CHEMBL3352638, “Improving the MDR reversal activity of 6,17-epoxylathyrane diterpenes” (Bioorg Med Chem, 2014).

Assays:
L5178Y [1] = assay: Antiproliferative activity against mouse L5178Y cells after 72 hrs by MTT assay; format: functional, cell-based
[2] = molecular target: T1, ATP-dependent translocase ABCB1 (Homo sapiens, UniProt P08183); assay: Inhibition of human MDR1 expressed in mouse L5178Y cells assessed as Rhodamine-123 accumulation measured as fluorescence activity at 20 uM after 20 mins by flow cytometry relative to control; format: cell-based
[3] = molecular target: T1, ATP-dependent translocase ABCB1; assay: Inhibition of human MDR1 expressed in mouse L5178Y cells assessed as Rhodamine-123 accumulation measured as fluorescence activity at 2 uM after 20 mins by flow cytometry relative to control; format: cell-based
L5178Y [4] = assay: Antiproliferative activity against human MDR1 transfected mouse L5178Y cells after 48 hrs by MTT assay in presence of doxorubicin; format: functional
L5178Y [5] = assay: Antiproliferative activity against human MDR1 transfected mouse L5178Y cells after 72 hrs by MTT assay; format: functional, cell-based
[6] = molecular target: T1, ATP-dependent translocase ABCB1; assay: Stimulation of vanadate-sensitive ATPase activity of human MDR1 expressed in Sf9 membrane vesicles assessed as inorganic phosphate production at 2 to 100 uM after 10 mins by colorimetry; format: cell membranes; settings: sf9, 10 min
[7] = molecular target: T1, ATP-dependent translocase ABCB1; assay: Inhibition of human MDR1 expressed in mouse L5178Y cells assessed as Rhodamine-123 accumulation measured as fluorescence activity at 40 uM after 20 mins by flow cytometry relative to control; format: cell-based
[8] = molecular target: T1, ATP-dependent translocase ABCB1; assay: Inhibition of verapamil-stimulated vanadate-sensitive ATPase activity of human MDR1 expressed in Sf9 membrane vesicles assessed as inorganic phosphate production at 2 to 100 uM after 10 mins by colorimetry; format: cell membranes; settings: sf9, 10 min
[9] = molecular target: T1, ATP-dependent translocase ABCB1; assay: Inhibition of human MDR1 expressed in mouse L5178Y cells assessed as Rhodamine-123 accumulation after 20 mins by flow cytometry; format: cell-based
[10] = molecular target: T1, ATP-dependent translocase ABCB1; assay: Inhibition of human MDR1 expressed in mouse L5178Y cells assessed as Rhodamine-123 accumulation measured as fluorescence activity at 80 uM after 20 mins by flow cytometry relative to control; format: cell-based

T1 sequence (P08183 whole entry): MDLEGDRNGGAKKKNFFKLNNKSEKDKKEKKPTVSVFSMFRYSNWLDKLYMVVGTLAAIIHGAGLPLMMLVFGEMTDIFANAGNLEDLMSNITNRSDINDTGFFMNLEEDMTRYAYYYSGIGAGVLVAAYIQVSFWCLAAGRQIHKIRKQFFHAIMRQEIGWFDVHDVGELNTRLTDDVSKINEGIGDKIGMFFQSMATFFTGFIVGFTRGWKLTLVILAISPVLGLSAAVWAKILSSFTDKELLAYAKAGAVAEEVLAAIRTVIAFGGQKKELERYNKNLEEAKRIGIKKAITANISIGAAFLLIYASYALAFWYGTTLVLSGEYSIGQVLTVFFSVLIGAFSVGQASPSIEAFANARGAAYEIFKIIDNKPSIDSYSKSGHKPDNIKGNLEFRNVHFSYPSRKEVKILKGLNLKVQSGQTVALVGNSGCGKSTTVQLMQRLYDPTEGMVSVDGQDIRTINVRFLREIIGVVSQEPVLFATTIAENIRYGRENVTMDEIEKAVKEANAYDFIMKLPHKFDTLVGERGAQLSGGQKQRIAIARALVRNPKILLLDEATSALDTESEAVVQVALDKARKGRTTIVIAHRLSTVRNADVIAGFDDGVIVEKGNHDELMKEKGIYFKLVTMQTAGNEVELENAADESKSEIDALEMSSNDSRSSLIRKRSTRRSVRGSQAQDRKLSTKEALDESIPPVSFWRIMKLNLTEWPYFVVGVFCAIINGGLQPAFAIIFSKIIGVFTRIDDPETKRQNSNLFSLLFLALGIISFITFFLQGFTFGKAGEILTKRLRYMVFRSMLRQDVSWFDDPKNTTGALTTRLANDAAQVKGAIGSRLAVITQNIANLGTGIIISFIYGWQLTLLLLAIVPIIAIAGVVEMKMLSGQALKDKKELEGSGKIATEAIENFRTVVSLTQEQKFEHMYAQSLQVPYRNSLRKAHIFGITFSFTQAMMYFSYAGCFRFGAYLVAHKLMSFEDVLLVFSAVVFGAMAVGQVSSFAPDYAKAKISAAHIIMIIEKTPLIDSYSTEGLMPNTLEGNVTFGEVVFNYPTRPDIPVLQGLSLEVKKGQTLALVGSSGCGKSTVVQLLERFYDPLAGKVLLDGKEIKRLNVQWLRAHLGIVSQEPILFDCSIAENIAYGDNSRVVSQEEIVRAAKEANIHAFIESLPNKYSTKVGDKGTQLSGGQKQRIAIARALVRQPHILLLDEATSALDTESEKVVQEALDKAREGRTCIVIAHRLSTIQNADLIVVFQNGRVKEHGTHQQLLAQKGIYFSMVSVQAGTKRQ

Row | Structure (SMILES) | IC50 (L5178Y [1]) | Ratio [2] | Ratio [3] | CI (L5178Y [4]) | IC50 (L5178Y [5]) | Activity [6] | Ratio [7] | inhibition (INH) [8] | inhibition (INH) [9] | Ratio [10]
1 | CCCCC(CC)C(=O)O[C@@H]1[C@@H]2[C@@H](OC(=O)C(CC)CCCC)[C@]3(CC[C@H]4[C@@H](/C=C(\C)C(=O)[C@@]2(O)C[C@@H]1C)C4(C)C)CO3 (some centres not stated) | 37 µM | 33.2 | 5.6 | 0.46 | 46.6 µM |  |  |  |  | 
2 | COc1ccc(C(=O)O[C@@H]2[C@@H]3[C@@H](OC(=O)c4ccc(OC)cc4)[C@]4(CC[C@H]5[C@@H](/C=C(\C)C(=O)[C@@]3(O)C[C@@H]2C)C5(C)C)CO4)cc1 | 76 µM | 23.3 | 3 | 0.36 | 86.8 µM |  |  |  |  | 
3 | CC(=O)O[C@@H]1[C@H]2[C@@H](OC(=O)c3ccccc3)[C@@H](C)C[C@]2(OC(C)=O)C(=O)/C(C)=C/[C@@H]2[C@H](CC[C@]13CO3)C2(C)C | 50.4 µM | 80.6 | 63.4 | 0.27 | 63.3 µM | Active | 102.9 | Active | Dose-dependent effect | 
4 | CCC(=O)O[C@@H]1[C@@H]2[C@@H](OC(C)=O)[C@]3(CC[C@H]4[C@@H](/C=C(\C)C(=O)[C@@]2(OC(C)=O)C[C@@H]1C)C4(C)C)CO3 | 41.6 µM | 1 |  | 0.05 | 43 µM |  |  |  |  | 58.6
5 | C/C1=C\[C@@H]2[C@H](CC[C@]3(CO3)[C@H](OC(=O)c3ccccc3)[C@H]3[C@@H](OC(=O)c4ccccc4)[C@@H](C)C[C@]3(O)C1=O)C2(C)C | 68 µM | 22.9 | 2 | 0.24 | 73.3 µM |  |  |  |  | 
6 | CC(=O)O[C@@H]1[C@H]2[C@@H](OC(=O)CC(C)C)[C@@H](C)C[C@]2(OC(C)=O)C(=O)/C(C)=C/[C@@H]2[C@H](CC[C@]13CO3)C2(C)C | 66.8 µM | 7.8 |  | 0.43 | 92.5 µM |  |  |  |  | 22.6
7 | C/C1=C\[C@@H]2[C@H](CC[C@]3(CO3)[C@H](OC(=O)Cc3ccccc3)[C@H]3[C@@H](OC(=O)Cc4ccccc4)[C@@H](C)C[C@]3(O)C1=O)C2(C)C | 111 µM | 73.4 | 3.9 | 1.38 | 123 µM |  | 80.8 |  | Dose-dependent effect | 
8 | CCCC(=O)O[C@@H]1[C@@H]2[C@@H](OC(C)=O)[C@]3(CC[C@H]4[C@@H](/C=C(\C)C(=O)[C@@]2(OC(C)=O)C[C@@H]1C)C4(C)C)CO3 | 46.4 µM | 74.3 | 8 | 0.2 | 79.4 µM | Active | 96.9 | Active | Dose-dependent effect | 
9 | C/C1=C\[C@@H]2[C@H](CC[C@]3(CO3)[C@H](O)[C@H]3[C@@H](O)[C@@H](C)C[C@]3(O)C1=O)C2(C)C | 80.9 µM | 1.5 |  | 0.66 | 89.2 µM |  |  |  |  | 14.8
10 | C/C1=C\[C@@H]2[C@H](CC[C@]3(CO3)[C@H](OC(=O)c3ccccc3)[C@H]3[C@@H](OC(=O)c4ccccc4)[C@@H](C)C[C@]3(OC(=O)c3ccccc3)C1=O)C2(C)C | 40.4 µM | 35.2 | 1.7 | 0.79 | 59 µM |  |  |  |  | 
11 | C/C1=C\[C@@H]2[C@H](CC[C@]3(CO3)[C@H](O)[C@H]3[C@@H](OC(=O)/C=C/c4ccccc4)[C@@H](C)C[C@]3(O)C1=O)C2(C)C | 108 µM | 7.4 | 3.7 | 1.4 | 105 µM |  |  |  |  | 
12 | CC(=O)O[C@@H]1[C@@H]2[C@@H](OC(C)=O)[C@]3(CC[C@H]4[C@@H](/C=C(\C)C(=O)[C@@]2(OC(C)=O)C[C@@H]1C)C4(C)C)CO3 | 79.3 µM | 1 |  | 0.24 | 93.5 µM |  |  |  |  | 35
13 | CCCC(=O)O[C@@H]1[C@@H]2[C@@H](OC(=O)CCC)[C@]3(CC[C@H]4[C@@H](/C=C(\C)C(=O)[C@@]2(OC(=O)CCC)C[C@@H]1C)C4(C)C)CO3 | 56.4 µM | 83.7 | 1.5 | 0.33 | 84.4 µM |  | 98 |  | Dose-dependent effect | 
14 | C/C1=C\[C@@H]2[C@H](CC[C@]3(CO3)[C@H](OC(=O)c3ccc(C)cc3)[C@H]3[C@@H](OC(=O)c4ccc(C)cc4)[C@@H](C)C[C@]3(O)C1=O)C2(C)C | 36.6 µM | 26.5 | 3.3 | 0.29 | 47.5 µM |  |  |  |  | 
